Source: paper PMC10017709, “Structural basis of selective cannabinoid CB2 receptor activation” (Nature Communications, 2023)
Where “and” joins values, the source holds several entries; their conditions need not be identical. Identical values can stand only once. Like-named read-outs stand apart in the source and are kept apart here.

Assays:
CB1R QuadrupleTM1,7 = assay: [35S]GTPγS assay, CB1R quadruple mutant; format: biochemical, human
CB2R-H95^2.65A = CB2R-H95^2.65A (Homo sapiens, UniProt P34972, H95A); assay: [35S]GTPγS assay, CB2R H95A mutant; format: biochemical
hCB1R WT = hCB1R WT (Homo sapiens, UniProt P21554); assay: [35S]GTPγS G protein activation assay, CB1R WT; format: biochemical
CB2R-Quadruple^TM1,7 = CB2R-Quadruple^TM1,7 (Homo sapiens, UniProt P34972, C40S/K279T/K33Q/V36I); assay: [35S]GTPγS assay, CB2R quadruple mutant; format: biochemical; settings: for [35S]GTPγS binding, percentage of WT: QuadrupleTM1,7, individual replicates
Procedure: In short, transient HEK293T membrane homogenates (10 µg/well) were diluted in assay buffer (50 mM Tris-HCl (pH 7.4), 5 mM MgCl2, 150 mM NaCl, 1 mM EDTA, 0.05% BSA (w/v) and 1 mM DTT, freshly prepared every day) and were pretreated with 10 µg saponin and 1 µM GDP. For endocannabinoid samples, the membranes were additionally pretreated for 30 min with 50 µM PMSF before agonist addition. […] Basal receptor activity was determined in the presence of vehicle only (0.2% DMSO/acetonitrile). […] Filtration was performed, and filter-bound radioactivity was determined as described under [^3H]RO6957022 Competition Association Assays except for using ice-cold 50 mM Tris-HCl (pH 7.4), 5 mM MgCl2 buffer.

CB2R-I110^3.29L = CB2R-I110^3.29L (Homo sapiens, UniProt P34972, I110L); assay: [35S]GTPγS assay, CB2R I110L mutant; format: biochemical
CB2R-L185^ECL2H = CB2R-L185^ECL2H (Homo sapiens, UniProt P34972, L185H); assay: [35S]GTPγS assay, CB2R L185H mutant; format: biochemical
CB2R WT = CB2R WT (Homo sapiens, UniProt P34972); assay: [35S]GTPγS G protein activation assay, CB2R WT; format: biochemical; settings: for [35S]GTPγS binding, percentage of WT / [35S]GTPγS binding, percentage of CP55,940: individual replicates
CB1R D266ECL2E = molecular target: T1, CB1R D266ECL2E (Homo sapiens, UniProt P21554, D266E); assay: [35S]GTPγS assay, CB1R D266E mutant; format: biochemical
T1 construct: The WT CB1R and CB2R genes were subcloned into vector pcDNA3.1; HA signal peptide (N); expressed in transfected cells; host or cells: HEK293T (transient, membrane homogenates)

CB2R-L182^ECL2I = CB2R-L182^ECL2I (Homo sapiens, UniProt P34972, L182I); assay: [35S]GTPγS assay, CB2R L182I mutant; format: biochemical
CB2R-S285^7.39A = CB2R-S285^7.39A (Homo sapiens, UniProt P34972, S285A); assay: [35S]GTPγS assay, CB2R S285A mutant; format: biochemical
CB2R-F117^3.36A = CB2R-F117^3.36A (Homo sapiens, UniProt P34972, F117A); assay: [35S]GTPγS assay, CB2R F117A mutant; format: biochemical
CB1R-H270^ECL2L = CB1R-H270^ECL2L (Homo sapiens, UniProt P21554, H270L); assay: [35S]GTPγS assay, CB1R H270L mutant; format: biochemical
CB1R I267ECL2L = CB1R I267ECL2L (Homo sapiens, UniProt P21554, I267L); assay: [35S]GTPγS assay, CB1R I267L mutant; format: biochemical
CB2R-V261^6.51L = CB2R-V261^6.51L (Homo sapiens, UniProt P34972, V261L); assay: [35S]GTPγS assay, CB2R V261L mutant; format: biochemical
CB2R-I110^3.29A = CB2R-I110^3.29A (Homo sapiens, UniProt P34972, I110A); assay: [35S]GTPγS assay, CB2R I110A mutant; format: biochemical
CB2R-E181^ECL2D = CB2R-E181^ECL2D (Homo sapiens, UniProt P34972, E181D); assay: [35S]GTPγS assay, CB2R E181D mutant; format: biochemical
[1] = tested on: cisplatin-induced nephropathy; assay: Cisplatin-induced nephropathy in wild type mice; format: in vivo, C57BL/6J mice
Procedure: (§1) Ten to twelve-week-old male/female C57BL/6J mice were obtained from The Jackson Laboratory (Bar Harbor, ME, USA). CB2R knockout mice (CB2R^−/−) and their wild-type littermates (CB2R^+/+) were developed as described previously and had been backcrossed to a C57BL/6J background. All animals were kept in a temperature-controlled environment (20–22 °C) with a 12 h light–dark cycle and were always allowed free access to food and water. All animal experiments reported in this manuscript complied with the National Institutes of Health “Guide for the Care and Use of Laboratory Animals” (NIH publication 86–23 revised 1985) and were approved by the Institutional Animal Care and Use Committee of the National Institute on Alcohol Abuse and Alcoholism (Bethesda, MD).
(§2) The well-established model of cisplatin-induced nephropathy was used[63]. Mice (CB2R^−/− and CB2R^+/+) were sacrificed 72 h after a single injection of cisplatin (cis-diamine platinum (II) dichloride (Sigma#P4394) 25 mg/kg i.p.; freshly dissolved in physiological saline) by cervical dislocation under deep anesthesia with 5% isoflurane, for collection of blood and tissue samples. LEI-102 was given i.p. or by oral gavage (p.o.) at 0.3, 3.0, and 10 mg/kg every day, starting 1.5 h before the cisplatin exposure. The drug was dissolved in a vehicle of DMSO:Tween 80:saline, 1:1:18. After administration of LEI‐102, mice were killed by cervical dislocation under deep anesthesia with 5% isoflurane, for collection of blood and tissue samples at the time described in the figure. The tetrad assay in mice has previously been described in detail.
(§3) Markers of kidney dysfunction (BUN and CREA), histopathology (PAS staining), immunostaining or ELISA for 3-nitrotyrosine (3-NT; Cell Biolabs #STA-305) and 4-hydroxynonenal (4-HNE; Cell Biolabs#STA-838), and real-time PCR (Primers from Qiagen, SYBER Green Vita Scientific#MEIF01301, High-Capacity cDNA Reverse Transcription Kit, Thermo Fisher Scientific#4368813) for inflammatory cytokines were performed as previously described. Tubular damage scores were determined based on the percentage of tubules showing epithelial necrosis where 0= normal; 1, <10%; 2, 10–25%; 3, 26–75%; 4, >75%. Tubular necrosis was defined as the loss of the proximal tubular brush border, blebbing of apical membranes, tubular epithelial cell detachment from the basement membrane, or intraluminal aggregation of cells and proteins. The morphometric examination was performed in a blinded manner. Ten fields were scored from each mouse kidneys at 200× magnification, and average scores were determined for each mouse. For final quantification graph, average tubular damage scores of six mice/group were plotted.

[2] = tested on: cisplatin-induced nephropathy, CB2R knockout mice (CB2R−/−); assay: Cisplatin-induced nephropathy in CB2R knockout mice; format: in vivo; settings: Cisplatin KO; mean, n = 6
Procedure: as §1, §2, §3

hCB2R [3] = molecular target: T2, hCB2R (Homo sapiens, UniProt P34972); assay: [3H]RO6957022 displacement assay; format: binding; settings: individual replicates
T2 construct: host or cells: CHO-K1 (CHOK1_hCB2bgal, PathHunter), membranes

hCB2R [4] = molecular target: T2, hCB2R; assay: [3H]RO6957022 competition association assay; format: binding; settings: for percentage specific [3H]RO6957022 binding (competition association): individual replicates
[5] = Cisplatin WT (Fig5F), mean, n = 6
[6] = cisplatin 25 mg/kg i.p. alone, 72 h, mean, n = 6 (Fig5A)
[7] = kidney, cisplatin alone, mean, n = 6, vehicle mean 1.0
[8] = kidney, cisplatin alone, mean, n = 6, vehicle mean 1.00

Chain of CB2R WT (P34972 whole entry): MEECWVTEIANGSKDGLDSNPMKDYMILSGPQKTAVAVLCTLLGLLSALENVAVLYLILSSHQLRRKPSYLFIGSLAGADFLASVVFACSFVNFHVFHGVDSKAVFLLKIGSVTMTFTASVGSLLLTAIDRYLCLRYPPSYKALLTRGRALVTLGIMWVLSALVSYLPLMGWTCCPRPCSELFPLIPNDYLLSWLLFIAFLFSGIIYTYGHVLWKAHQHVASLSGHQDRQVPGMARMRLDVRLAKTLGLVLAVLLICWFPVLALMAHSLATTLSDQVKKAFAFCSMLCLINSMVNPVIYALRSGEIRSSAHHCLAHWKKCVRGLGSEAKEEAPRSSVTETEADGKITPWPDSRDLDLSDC
T2 sequence (P34972 whole entry): as above
Chain of CB2R-Quadruple^TM1,7 (P34972 whole entry K33Q/V36I/C40S/K279T): as the sequence (P34972 whole entry) above, with K33Q, V36I, C40S, K279T counted along it
Chain of CB2R-L185^ECL2H (P34972 whole entry L185H): as the sequence (P34972 whole entry) above, with L185H counted along it
Chain of CB2R-L182^ECL2I (P34972 whole entry L182I): as the sequence (P34972 whole entry) above, with L182I counted along it
Chain of CB2R-E181^ECL2D (P34972 whole entry E181D): as the sequence (P34972 whole entry) above, with E181D counted along it
Chain of CB2R-H95^2.65A (P34972 whole entry H95A): as the sequence (P34972 whole entry) above, with H95A counted along it
Chain of hCB1R WT (P21554 whole entry): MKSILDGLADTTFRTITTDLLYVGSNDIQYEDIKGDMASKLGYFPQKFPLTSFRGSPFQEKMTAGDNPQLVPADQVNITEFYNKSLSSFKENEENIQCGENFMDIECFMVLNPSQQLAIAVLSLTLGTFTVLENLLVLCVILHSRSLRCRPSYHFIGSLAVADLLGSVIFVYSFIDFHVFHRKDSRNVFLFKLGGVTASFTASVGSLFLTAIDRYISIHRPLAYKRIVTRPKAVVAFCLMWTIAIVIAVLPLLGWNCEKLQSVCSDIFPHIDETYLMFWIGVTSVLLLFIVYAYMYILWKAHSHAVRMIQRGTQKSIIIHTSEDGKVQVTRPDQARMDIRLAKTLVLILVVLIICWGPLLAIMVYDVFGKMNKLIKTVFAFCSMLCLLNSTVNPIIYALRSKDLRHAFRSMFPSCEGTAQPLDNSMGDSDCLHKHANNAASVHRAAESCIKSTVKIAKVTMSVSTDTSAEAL
T1 sequence (P21554 whole entry D266E): as the sequence (P21554 whole entry) above, with D266E counted along it
Chain of CB1R-H270^ECL2L (P21554 whole entry H270L): as the sequence (P21554 whole entry) above, with H270L counted along it
Chain of CB1R I267ECL2L (P21554 whole entry I267L): as the sequence (P21554 whole entry) above, with I267L counted along it
Chain of CB2R-I110^3.29A (P34972 whole entry I110A): as the sequence (P34972 whole entry) above, with I110A counted along it
Chain of CB2R-S285^7.39A (P34972 whole entry S285A): as the sequence (P34972 whole entry) above, with S285A counted along it
Chain of CB2R-I110^3.29L (P34972 whole entry I110L): as the sequence (P34972 whole entry) above, with I110L counted along it
Chain of CB2R-F117^3.36A (P34972 whole entry F117A): as the sequence (P34972 whole entry) above, with F117A counted along it
Chain of CB2R-V261^6.51L (P34972 whole entry V261L): as the sequence (P34972 whole entry) above, with V261L counted along it

CCCCCCC(C)(C)c1ccc([C@@H]2C[C@H](O)CC[C@H]2CCCO)c(O)c1 [CP55,940]
Agonist-mediated activation (CB1R QuadrupleTM1,7): 1.8 ± 0.1 fold over its basal
Emax (CB2R-H95^2.65A): 68 ± 11%
drop in potency compared to WT (CB2R-H95^2.65A): 40 fold
Agonist-mediated activation (hCB1R WT): 1.2 ± 0.1 fold over its basal
Emax (CB2R-Quadruple^TM1,7): 18 ± 14%
Emax (CB2R-I110^3.29L): 96 ± 3%
Emax (CB2R-L185^ECL2H): 142 ± 16%
Emax (CB2R WT): 98 ± 4%
Emax (%) (CB2R WT): 99 ± 3%
Agonist-mediated activation (CB1R D266ECL2E): 1.4 ± 0.1 fold over its basal
Emax (CB2R-L182^ECL2I): 19 ± 2%
Emax (CB2R-S285^7.39A): 25 ± 5%
Emax (CB2R-F117^3.36A): -1 ± 14%
Agonist-mediated activation (CB1R-H270^ECL2L): 1.6 ± 0.1 fold over its basal
Agonist-mediated activation (CB1R I267ECL2L): 1.0 ± 0.0 fold over its basal
Emax (CB2R-V261^6.51L): 12 ± 7%
Emax (CB2R-I110^3.29A): 30 ± 2%
Emax (CB2R-E181^ECL2D): 19 ± 10%

N.N.[Cl][Pt][Cl] [Cisplatin, cis-diamine platinum (II) dichloride]
BUN [1, 5]: 170
CREA [1, 5]: 1.7
Tubular damage score [1, 5]: 2.16
BUN [1, 6]: 167.5 mg/dL
CREA [1, 6]: 1.8 mg/dL
serum creatinine and blood urea nitrogen levels ([1]; cisplatin 25 mg/kg i.p., 72 h, wild type mice vs vehicle): marked elevations
Tubular damage score ([1]; cisplatin alone, PAS staining, score 0-4, mean, n = 6 (Fig5B)): 2.4
HNE (HNE adducts, ELISA) [1, 7]: 4.3
NT (protein nitration, ELISA) [1, 7]: 5.7
IL1b expression (real-time PCR) [1, 8]: 4.93
TNFa expression (real-time PCR) [1, 8]: 3.36
BUN [2]: 290
CREA [2]: 3.7
Tubular damage score [2]: 2.86

CCCCC/C=C\C/C=C\C/C=C\C/C=C\CCCC(=O)NCCO [AEA, anandamide]
Agonist-mediated activation (CB1R QuadrupleTM1,7): 1.6 ± 0.1 fold over its basal
Emax (CB2R-Quadruple^TM1,7; Quadruple TM1,7 mutant, at 10 µM compared to WT, read-out: Emax (%)): 24 ± 7%
[35S]GTPγS binding, percentage of WT (CB2R-Quadruple^TM1,7; log [ligand] (M) -5): 32.30 percentage of WT and 9.42 percentage of WT and 29.02 percentage of WT
[35S]GTPγS binding, percentage of WT (CB2R-Quadruple^TM1,7; log [ligand] (M) -6): -7.36 percentage of WT and -10.83 percentage of WT and 27.74 percentage of WT
[35S]GTPγS binding, percentage of WT (CB2R-Quadruple^TM1,7; log [ligand] (M) -7): -34.86 percentage of WT and -19.55 percentage of WT and 15.75 percentage of WT
[35S]GTPγS binding, percentage of WT (CB2R-Quadruple^TM1,7; log [ligand] (M) -8): 9.32 percentage of WT and -29.85 percentage of WT and 11.86 percentage of WT
Emax (CB2R-L185^ECL2H; L185H mutant, at 10 µM compared to WT, read-out: Emax (%)): 210 ± 61%
Emax (CB2R WT; CB2R WT, maximum effect at 10 µM compared to WT (Suppl. Table 6), read-out: Emax (%)): 106 ± 7%
Emax (CB2R WT; CB2R WT, maximum effect compared to CP55,940, read-out: Emax (%)): 60 ± 5%
[35S]GTPγS binding, percentage of WT (CB2R WT; log [ligand] (M) -5): 119.90 percentage of WT and 99.77 percentage of WT and 99.12 percentage of WT
[35S]GTPγS binding, percentage of WT (CB2R WT; log [ligand] (M) -6): 73.32 percentage of WT and 72.65 percentage of WT and 56.56 percentage of WT
[35S]GTPγS binding, percentage of WT (CB2R WT; log [ligand] (M) -7): 21.64 percentage of WT and 23.33 percentage of WT and 32.57 percentage of WT
[35S]GTPγS binding, percentage of WT (CB2R WT; log [ligand] (M) -8): 2.55 percentage of WT and 4.67 percentage of WT and 26.67 percentage of WT
[35S]GTPγS binding, percentage of CP55,940 (CB2R WT; log [agonist] (M) -5): 55.30% and 54.57% and 71.23%
[35S]GTPγS binding, percentage of CP55,940 (CB2R WT; log [agonist] (M) -6): 33.82% and 39.74% and 40.65%
[35S]GTPγS binding, percentage of CP55,940 (CB2R WT; log [agonist] (M) -7): 9.98% and 12.76% and 23.41%
[35S]GTPγS binding, percentage of CP55,940 (CB2R WT; log [agonist] (M) -8): 1.18% and 2.55% and 19.17%
Emax (CB2R-L182^ECL2I; L182I mutant, at 10 µM compared to WT, read-out: Emax (%)): 5 ± 17%
percentage specific [3H]RO6957022 binding (displacement) (hCB2R [3]; log [agonist] (M) -5): 3.79% and 18.06% and 16.04%
percentage specific [3H]RO6957022 binding (displacement) (hCB2R [3]; log [agonist] (M) -6): 47.48% and 65.38% and 68.38%
percentage specific [3H]RO6957022 binding (displacement) (hCB2R [3]; log [agonist] (M) -7): 87.86% and 102.56% and 105.31%
percentage specific [3H]RO6957022 binding (displacement) (hCB2R [3]; log [agonist] (M) -8): 101.15% and 95.97% and 108.64%
percentage specific [3H]RO6957022 binding (competition association) (hCB2R [4]; Time 1 min): 4.42% and 11.28% and 5.44%
percentage specific [3H]RO6957022 binding (competition association) (hCB2R [4]; Time 3 min): 16.17% and 23.05% and 21.34%
percentage specific [3H]RO6957022 binding (competition association) (hCB2R [4]; Time 5 min): 26.28% and 26.79% and 25.51%
percentage specific [3H]RO6957022 binding (competition association) (hCB2R [4]; Time 7 min): 34.14% and 35.42% and 31.98%
percentage specific [3H]RO6957022 binding (competition association) (hCB2R [4]; Time 10 min): 34.18% and 41.87% and 46.59%
percentage specific [3H]RO6957022 binding (competition association) (hCB2R [4]; Time 20 min): 41.44% and 51.99% and 48.92%
percentage specific [3H]RO6957022 binding (competition association) (hCB2R [4]; Time 30 min): 50.41% and 53.24% and 59.83%
percentage specific [3H]RO6957022 binding (competition association) (hCB2R [4]; Time 45 min): 45.80% and 66.77% and 61.94%
percentage specific [3H]RO6957022 binding (competition association) (hCB2R [4]; Time 60 min): 54.67% and 64.58% and 70.00%
percentage specific [3H]RO6957022 binding (competition association) (hCB2R [4]; Time 90 min): 60.96% and 62.48% and 62.68%
percentage specific [3H]RO6957022 binding (competition association) (hCB2R [4]; Time 120 min): 62.19% and 63.42% and 54.77%
ET (engagement time) (hCB2R [4]; at 1 µM agonist, ET = 1/(kon ∙ 1 × 10-6)): 152 s and 152 ± 10.4 s
Emax (CB2R-E181^ECL2D; E181D mutant, at 10 µM compared to WT, read-out: Emax (%)): 14 ± 5%
